Results from the NIST ThermoML archive (doi:10.1016/j.jct.2016.03.026).

Assay: xn = mol fraction of the nth substance listed
Conditions: Fluid (supercritical or subcritical phases), x1 = 0.97; for speed of sound: 304.19 K, Frequency=5 MHz, Pulse-echo method; for mass density: 304.21 K, Vibrating tube method

O=C=O [carbon dioxide] + CO
Conditions	mass density [kg/m3]	speed of sound [m/s]
7850 kPa	713.81	–
7875 kPa	715.24	–
7900 kPa	716.69	–
7925 kPa	717.99	–
7950 kPa	719.19	–
7975 kPa	720.37	–
8000 kPa	721.57	–
8025 kPa	722.66	–
8050 kPa	723.78	–
8075 kPa	724.91	–
8100 kPa	725.92	–
8125 kPa	726.93	–
8150 kPa	728.01	–
8175 kPa	729.1	–
8200 kPa	730.14	–
8225 kPa	731.15	–
8250 kPa	732.12	–
8275 kPa	733.11	–
8300 kPa	734.02	–
8325 kPa	735.01	–
8350 kPa	735.91	–
8375 kPa	736.81	–
8400 kPa	737.68	–
8425 kPa	738.51	–
8450 kPa	739.43	–
8475 kPa	740.29	–
8500 kPa	741.14	–
8525 kPa	741.99	–
8550 kPa	742.83	–
8575 kPa	743.65	–
8600 kPa	744.47	–
8625 kPa	745.32	–
8650 kPa	746.1	–
8675 kPa	746.89	–
8700 kPa	747.67	–
8725 kPa	748.5	–
8750 kPa	749.21	–
8775 kPa	749.97	–
8800 kPa	750.73	–
8825 kPa	751.52	–
8850 kPa	752.22	–
8875 kPa	752.97	–
8900 kPa	753.68	–
8925 kPa	754.39	–
8950 kPa	755.11	–
8975 kPa	755.82	–
9000 kPa	756.48	–
9025 kPa	757.25	–
9050 kPa	757.93	–
9075 kPa	758.64	–
9100 kPa	759.25	–
9125 kPa	759.92	–
9150 kPa	760.55	–
9175 kPa	761.24	–
9200 kPa	761.88	–
9225 kPa	762.52	–
9250 kPa	763.15	–
9275 kPa	763.76	–
9300 kPa	764.36	–
9325 kPa	764.98	–
9350 kPa	765.65	–
9375 kPa	766.27	–
9400 kPa	766.88	–
9425 kPa	767.44	–
9450 kPa	768.06	–
9475 kPa	768.6	–
9500 kPa	769.12	–
9525 kPa	769.73	–
9550 kPa	770.22	–
9575 kPa	770.76	–
9600 kPa	771.35	–
9625 kPa	771.96	–
9650 kPa	772.5	–
9675 kPa	773.03	–
9700 kPa	773.62	–
9725 kPa	774.15	–
9750 kPa	774.65	–
9775 kPa	775.2	–
9800 kPa	775.72	–
9825 kPa	776.25	–
9850 kPa	776.81	–
9875 kPa	777.3	–
9900 kPa	777.81	–
9925 kPa	778.36	–
9950 kPa	778.83	–
9975 kPa	779.32	–
10000 kPa	779.86	–
10025 kPa	780.3	–
10050 kPa	780.81	–
10075 kPa	781.33	–
10100 kPa	781.81	–
10125 kPa	782.29	–
10150 kPa	782.79	–
10175 kPa	783.3	–
10200 kPa	783.77	–
10225 kPa	784.17	–
10250 kPa	784.67	–
10275 kPa	785.18	–
10300 kPa	785.65	–
10325 kPa	786.13	–
10350 kPa	786.55	–
10375 kPa	787.08	–
10400 kPa	787.51	–
10425 kPa	787.92	–
10450 kPa	788.38	–
10475 kPa	788.87	–
10500 kPa	789.3	–
10525 kPa	789.73	–
10550 kPa	790.18	–
10575 kPa	790.6	–
10600 kPa	791.05	–
65100 kPa	–	894.9
70230 kPa	–	919.7
75540 kPa	–	944.1
79980 kPa	–	963.6
90070 kPa	–	1005.1
100040 kPa	–	1043.2
109900 kPa	–	1078.3
119960 kPa	–	1112.5
140090 kPa	–	1173.8
159770 kPa	–	1228.8
180450 kPa	–	1282
